Reference: US20210247277A1, “Pretreatment Method for Fluorescent Image Diagnosis” (Goryo Chemical, Inc., priority 2018, published 2021)

Legend:
[1] = Fluorescence intensity of the probe and of its fluorescent product at each pH; type: physicochemical; settings: dependence on pH
Description: (§1) Cells cultured on glass surface were reacted with gGlu-HMRG, and fluorescence intensity was compared. HeLa cells were inoculated at the same density to chambers of a 4-chamber glass bottom dish. The cells were cultured in DMEM+8% FBS, P.S. under conditions of 37° C. and 5% CO2 for approximately 8 hours. The cells were rinsed three times with PBS(−) adjusted to pH 6.5, 7.3, or 7.8, which was then replaced with each solution supplemented with 2 μM gGlu-HMRG. The cells were stained at 37° C. under 5% CO2 for 20 minutes and observed under a fluorescence microscope under the same conditions as above without the solution replaced. 100 ms exposure, gain 5 Int 5, ND1. Fluorescence intensity from 5 cells in fluorescence images, and background fluorescence intensity were measured with reference to superimposed images with DIC, and the mean and standard deviation were plotted. The fluorescence intensity of gGlu-HMRG and the fluorescence intensity of HMRG (fluorescent substance after reaction with GGT) were measured at each pH.

[2] = system: lymph nodes including sentinel lymph node (breast cancer metastasis); assay: Fluorescence increase in lymph node clinical specimens resected during breast cancer surgery; settings: 50 μM in PBS
Description: After pretreatment of lymph node specimens resected during breast cancer surgery in PBS(−) for 0 minutes, 1 minute, 5 minutes, 10 minutes or an appropriate course of time, increases of fluorescence at 10 minutes after impregnation with a 50 μM gGlu-HMRG solution from that immediately after the impregnation are shown. A specimen diagnosed with cancer metastasis in pathological diagnosis is indicated by a filled circle, and a specimen confirmed to have no cancer metastasis is indicated by an open triangle.
Lymph nodes including sentinel lymph node excised for the purpose of pathological diagnosis during breast cancer surgery were divided and transported from the operating room to an inspection room in a state wrapped in gauze wetted with PBS. A reagent and PBS (140 mM NaCl, 2.7 mM KCl, 10 mM PO4^3−, pH=7.4) at room temperature were used. A PBS impregnated sample was impregnated with a container where PBS was placed, and continuously impregnated for 1 minute, 5 minutes, 10 minutes, or an appropriate course of time from 1 minute to 30 minutes. A PBS non-impregnated sample was stored in state wrapped in gauze wetted with PBS to prevent drying out, instead of being impregnated with PBS, and used in fluorescence measurement. The lymph nodes were carefully taken out with tweezers and put on a Petri dish, and visible images of autofluorescence were taken in a fluorescence measuring machine. 50 μM gGlu-HMRG dissolved in PBS was added to the Petri dish where the lymph nodes were placed, until the lymph nodes completely soaked therein. The fluorescence measurement was continued. The pathological diagnosis of the specimens used in this test was also conducted and checked against final results about whether cancer metastasized to each lymph node.
The fluorescence intensity was indicated by a ratio to the fluorescence intensity of a fluorescence intensity reference plate having a constant fluorescence intensity (measured fluorescence intensity/fluorescence intensity of the fluorescence intensity reference plate).

HeLa cells spheroid = assay: Time-dependent fluorescence intensity in HeLa cell spheroid (fluorescence microscope); type: cell-based, human; settings: 1 μM; washed with HBSS and probe in HBSS, compared with PBS(−) 10 min and probe in PBS(−)
Description: Time-dependent changes in fluorescence intensity are shown for a HeLa cells spheroid which was washed with HBSS and then impregnated with a 1 μM solution of gGlu-HMRG dissolved in HBSS (upper), and for a HeLa cells spheroid which was impregnated with PBS(−) for 10 minutes and then impregnated with a 1 μM solution of gGlu-HMRG dissolved in PBS(−) (lower).
HeLa cells were inoculated at 10^5 cells/well and cultured for 4 to 6 days. The obtained spheroid was put on a glass bottom dish and cultured for about 3 hours. Then, the culture solution was removed, and the spheroid was impregnated with PBS(−) for 10 minutes. A control was washed with HBSS without being impregnated with PBS(−). A 1 μM solution of gGlu-HMRG dissolved in PBS(−) or HBSS was added to the spheroid impregnated with PBS(−) or the control spheroid. Each spheroid immediately (0 minutes), 10 minutes, 20 minutes, 30 minutes, and 60 minutes after addition of the gGlu-HMRG solution was photographed under a fluorescence microscope (Leica DMI 6000 CS, lens: 10×, filter Leica L5, excitation wavelength: 460 to 500 nm, fluorescence wavelength: 512 to 542 nm). Transmitted light images of the spheroid were taken 10 minutes after impregnated with PBS(−).

HeLa cell spheroid = assay: Quantification of probe reaction and penetration in HeLa cell spheroid (fluorescence intensity by depth); type: cell-based, human
Description: (§2) FIG. 4 illustrates a method for analyzing the penetration or reaction of reagents into or with the spheroid. When “Depth” shown in FIGS. 5 to 10 was, for example, 200 μm, the fluorescence intensity of an open region in the illustration was determined from fluorescence intensity observed by fluorescence microscope, wherein the open region has the inside circle at 200 μm inside from the outer periphery and has the outside circle at 100 μm outside from the aforementioned inside circle as shown in the drawing.
HeLa cells (human uterine cervical cancer cell line) or A549 cells (human alveolar basal epithelial adenocarcinoma cell line) were inoculated at 1×10^4 cells to Nunclon Sphera and cultured for 7 to 14 days. Each obtained spheroid was allowed to adhere to a poly-L-lysine-coated glass bottom dish over approximately 24 hours. The medium was replaced with a buffer, and the spheroid was incubated at room temperature for 10 minutes (impregnation, rinse). […] An area (ROI) having the distance from surface shown in FIG. 4 was captured with ImageJ, and increase in the average luminance between the start of measurement and 5 minutes later was analyzed. Fluorescence was also observed by impregnating with saline and addition of gGlu-HMRG dissolved in PBS(−).
(§3) The buffers used and their composition are as follows.
(§4) PBS(−): 140 mM NaCl, 2.7 mM KCl, 10 mM PO4^3− (pH=7.4) PBS(+): PBS(−) described above as well as 0.90 mM CaCl2, 0.33 mM MgCl2 (pH=7.4) PBS−Ca: PBS(−) described above as well as 0.90 mM CaCl2 (pH=7.4) PBS−Mg: PBS(−) described above as well as 0.33 mM MgCl2 (pH=7.4) PBS−EDTA: PBS(−) described above as well as 0.2 mM EDTA (pH=7.4)
(§5) To evaluate the influence of divalent ion (calcium, etc.)-dependent adhesion, fluorescence was observed under the same conditions as in Example 3 except that the following buffers were used.
(§6) (1) No pretreatment (no rinse) and impregnation with a solution of gGlu-HMRG dissolved in PBS(−) (2) Pretreatment by Impregnating with PBS(−) (3) Pretreatment by Impregnating with PBS(+) (4) Pretreatment by impregnating with PBS(−)+0.2 mM EDTA

A549 cell spheroid = assay: Quantification of probe reaction and penetration in A549 cell spheroid (fluorescence intensity by depth); type: cell-based, human
Description: as §2
HeLa cells (human uterine cervical cancer cell line) or A549 cells (human alveolar basal epithelial adenocarcinoma cell line) were inoculated at 1×10^4 cells to Nunclon Sphera and cultured for 7 to 14 days. Each obtained spheroid was allowed to adhere to a poly-L-lysine-coated glass bottom dish over approximately 24 hours. The medium was replaced with a buffer, and the spheroid was incubated at room temperature for 10 minutes (impregnation, rinse). The buffer in the dish was replaced with each buffer containing gGlu-HMRG dissolved to attain a final concentration of 0.1 μM (A549 cells) or 1 μM (HeLa cells), followed by observation under a fluorescence microscope (Leica DMI 6000 CS, lens: 10×, filter Leica L5, ex. 460 to 500 nm, em. 512 to 542 nm). An area (ROI) having the distance from surface shown in FIG. 4 was captured with ImageJ, and increase in the average luminance between the start of measurement and 5 minutes later was analyzed. Fluorescence was also observed by impregnating with saline and addition of gGlu-HMRG dissolved in PBS(−).
as §3, §4, §5, §6
Fluorescence was measured by the same method as in Example 3 except that a 5 μM FeRhoNox-1 probe was used instead of gGlu-HMRG as the fluorescent probe. The cells used were only A549 cells.

HeLa cells = assay: Influence of pH on fluorescence of HeLa cells cultured on glass surface; type: cell-based, human; settings: 2 μM, 20 minutes, 37° C.
Description: as §1

[3] = PBS(−) + 0.2 mM EDTA, compared with PBS(−)

Molecule	Fluorescence intensity at each pH [1]	Increase in fluorescence intensity in the lymph nodes 10 minutes after the start of measurement ([2]; 5 specimens confirmed to have no cancer metastasis in pathological diagnosis)	Increase in fluorescence intensity in the lymph nodes 10 minutes after the start of measurement ([2]; some specimens confirmed to have cancer, without impregnation with PBS)	Increase in fluorescence intensity in the lymph nodes 10 minutes after the start of measurement ([2]; specimens confirmed to have cancer, impregnated with PBS (regardless of impregnating time))	Increase of fluorescence in the spheroid over 0-60 minutes (HeLa cells spheroid)	Increase of fluorescence by distance from surface, 5 minutes (HeLa cell spheroid; [3])	Increase of fluorescence by distance from surface, 5 minutes (HeLa cell spheroid; PBS(−) impregnation 10 minutes, probe in PBS(−), compared with HBSS without wash)	Increase of fluorescence by distance from surface, 5 minutes (HeLa cell spheroid; PBS(−) impregnation compared with no impregnation or PBS(+))	Increase of fluorescence by distance from surface, 5 minutes (HeLa cell spheroid; probe in HBSS, no buffer wash, 1 μM, 50 μM (FIG. 5 legend))	Increase rate of fluorescence, 5 minutes (A549 cell spheroid; PBS(+) impregnation)	Increase of fluorescence intensity by depth, 5 minutes (A549 cell spheroid; [3])	Increase rate of fluorescence intensity, 5 minutes (A549 cell spheroid; PBS(−) impregnating treatment 10 min compared with PBS(+), 0.1 μM, 50 μM (FIG. 6 legend))	Increase rate of fluorescence intensity, 5 minutes (A549 cell spheroid; PBS−Ca (PBS(−) + 0.90 mM CaCl2) 10 min, as in PBS(+))	Increase rate of fluorescence intensity, 5 minutes (A549 cell spheroid; PBS−Mg (PBS(−) + 0.33 mM MgCl2) 10 min)	Increase of fluorescence intensity, 5 minutes (A549 cell spheroid; saline (154 mM NaCl) 10 min)	Fluorescence intensity of cells and background (HeLa cells; PBS(−) at lower pH (pH 6.5, 7.3, 7.8 tested))	Fluorescence intensity of cells (HeLa cells; PBS(−) at pH of 7.3 or higher)	Fluorescence intensity distribution by pretreatment solution, 5 minutes (A549 cell spheroid; 5 μM probe, PBS−, PBS+, PBS+Ca or PBS+EDTA 10 min)
Nc1ccc2c(c1)Oc1cc(N)ccc1C21OCc2ccccc21 [HMRG]	decreased with the elevation of pH																	
Nc1ccc2c(c1)Oc1cc(NC(=O)CC[C@H](N)C(=O)O)ccc1C21OCc2ccccc21 (stereo partly shown) [gGlu-HMRG]	decreased with the elevation of pH	little fluorescence increase	only weak fluorescence	strong fluorescence	slower increase of fluorescence in the central portion of the spheroid	further accelerated the increase of fluorescence	increase of fluorescence was mora rapid	accelerated the increase of fluorescence at a location distant from surface	increase of fluorescence was slowed with the increasing distance from surface	almost equivalent to that of no impregnation	larger increase of fluorescence intensity at a site deeper from surface	accelerated the increase rate of fluorescence intensity	less increased fluorescence	Substantially the same results as those of PBS(−)	increase of fluorescence intensity was slow	lower pH decreased a signal and increased a background	increased signal intensity	
FeRhoNox-1																		same tendency as that obtained using gGlu-HMRG
